We go through two molecules from ChEMBL document CHEMBL3132777, “Novel proteinprotein interaction inhibitor of Nrf2Keap1 discovered by structure-based virtual screening” (Medchemcomm, 2014).

Data set [1] has as its target Kelch-like ECH-associated protein 1 (Homo sapiens, UniProt Q14145). Briefly: Inhibition of FITC-9mer Nrf2 peptide amide/Keap1 Kelch domain (unknown origin) interaction after 30 mins by fluorescence polarization assay. A general note: Polarisation of emitted light reports the rotation of a fluorescent probe.
The test system of data set [2] is HepG2. Briefly: Cytotoxicity against human HepG2-ARE-C8 cells at 200 uM. The data set is classed as cell-based. Conditions: hepg2, 200 µM.
For data set [3], the system named is HepG2. The data set is described as follows: Induction of Nrf2 transcription activity in human HepG2-ARE-C8 cells assessed as ARE gene expression after 12 to 24 hrs by cell-based luciferase reporter assay. In kind it is functional. For orientation: Reporter assays use an easily measured gene product as a stand-in for the process of interest.
The test system of data set [4] is HepG2. The data set is described as follows: Induction of Nrf2 transcription activity in human HepG2-ARE-C8 cells assessed as increase in ARE gene expression at 200 uM by cell-based luciferase reporter assay relative to untreated control. The data set is classed as functional.
Data set [5] relates to HepG2. The data set is described as follows: Induction of Nrf2 transcription activity in human HepG2-ARE-C8 cells assessed as ARE gene expression at 20 to 100 uM after 24 hrs by cell-based luciferase reporter assay. The data set is classed as functional.
Data set [6] relates to HepG2. The data set is described as follows: Induction of Nrf2 transcription activity in human HepG2-ARE-C8 cells assessed as ARE gene expression at 20 to 100 uM after 12 hrs by cell-based luciferase reporter assay. In kind it is functional.

Calls of active or inactive are those of the source. The calls are words filed in the database; no cut-off is given here.

Chain of Kelch-like ECH-associated protein 1 (Q14145 whole entry, the tested form may be a part): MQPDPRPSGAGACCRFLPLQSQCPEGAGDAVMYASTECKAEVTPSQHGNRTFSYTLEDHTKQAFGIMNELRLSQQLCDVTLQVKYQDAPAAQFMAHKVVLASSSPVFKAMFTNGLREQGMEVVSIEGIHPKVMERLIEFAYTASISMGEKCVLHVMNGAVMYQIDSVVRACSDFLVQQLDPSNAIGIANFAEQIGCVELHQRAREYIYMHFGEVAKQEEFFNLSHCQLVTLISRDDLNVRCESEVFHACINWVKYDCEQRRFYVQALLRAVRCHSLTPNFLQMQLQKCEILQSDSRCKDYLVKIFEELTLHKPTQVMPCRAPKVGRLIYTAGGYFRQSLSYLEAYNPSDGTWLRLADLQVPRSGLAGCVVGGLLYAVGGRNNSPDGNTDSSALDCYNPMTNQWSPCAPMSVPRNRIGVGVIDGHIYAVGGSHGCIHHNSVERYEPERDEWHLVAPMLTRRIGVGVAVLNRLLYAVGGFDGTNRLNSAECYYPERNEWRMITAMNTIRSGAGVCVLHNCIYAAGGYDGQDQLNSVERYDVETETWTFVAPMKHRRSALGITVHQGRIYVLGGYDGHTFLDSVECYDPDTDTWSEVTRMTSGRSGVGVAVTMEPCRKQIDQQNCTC

On to `O=C(N/N=C/c1ccc(-c2ccc(C(=O)O)cc2)o1)N/N=C/c1ccc(-c2ccc(C(=O)O)cc2)o1`, for which, in data set [1], the EC50 (usually the concentration at which the effect is half-maximal) turned out to be 9.8 µM. In addition, the Activity entry in the data set with HepG2 [2] is “Non-toxic”; with HepG2 [3], “Dose-dependent effect”. Besides, in the data set on HepG2 [4], the “fold change (FC)” value worked out at 10.
Consider `CC(C)(C)c1cc(O)ccc1O`, for which, in the data set with HepG2 [5], the outcome was inactive. Moreover, the outcome with HepG2 [6] was Active.
